Results from US20240299387A1, “HETEROCYCLIC EGFR INHIBITORS FOR USE IN THE TREATMENT OF CANCER” (Blueprint Medicines Corporation, priority 2021, published 2024).
Like-named read-outs stand apart in the source and are kept apart here.

How the values were obtained:
EGFR (L858R T790M C797S) = biological target: T1, EGFR (L858R T790M C797S) (Homo sapiens, UniProt P00533, C797S/L858R/T790M); assay: Biochemical EGFR inhibition assay (Caliper mobility shift), EGFR LRTMCS mutant
T1 construct: purchased SignalChem E10-122VG
Experimental: Reactions proceeded until between 10% to 20% total peptides were phosphorylated at room temperature (25° C.) and were terminated with 35 mM 2,2′,2″,2′″-(ethane-1,2-diyldinitrilo)tetraacetic acid (EDTA). Product was detected using the Caliper mobility shift detection method where the phosphorylated peptide (product) and substrate were electrophoretically separated and measured. Percent activity was plotted against log concentration of compound and points to generate an apparent IC50.

[1] = biological target: T2, EGFR L858R T790M in NCI-H1975 cell line (Homo sapiens, UniProt P00533, L858R/T790M); assay: NCI-H1975 pEGFR AlphaLISA assay; format: cell-based; conditions: NCI-H1975 cells (EGFR L858R T790M), p-EGFR (Tyr1068), 4-5 hours incubation; read-out: Ext pEGFR H1975 GMean IC50 (nM) Protocol: @Pharmaron AlphaLISA (Num)
T2 construct: host or cells: NCI-H1975
Experimental: The NCI-H1975 cells were seeded at 12.5K/well in 22 μL into 384 well opti plate (PerkinElmer, 6007299) and adhering overnight at 37C/5% CO2. On the next day, the test compounds and DMSO control were added into H1975 cell plate followed by incubation at 37C/5% CO2 for 4-5 hours. […] Then 5 μL of a donor bead mix was added to each well followed by overnight incubation at room temperature in dark. On the next day, the plate was read at a compatible plate reader to obtain pEGFR signal. Percent of pEGFR inhibition was plotted against log concentration of compounds to generate IC50 values.

[2] = LRTMCS (PH) IC50 (nM) @ 1 mM ATP (Num)

T2 sequence (P00533 25-1210 T790M/L858R): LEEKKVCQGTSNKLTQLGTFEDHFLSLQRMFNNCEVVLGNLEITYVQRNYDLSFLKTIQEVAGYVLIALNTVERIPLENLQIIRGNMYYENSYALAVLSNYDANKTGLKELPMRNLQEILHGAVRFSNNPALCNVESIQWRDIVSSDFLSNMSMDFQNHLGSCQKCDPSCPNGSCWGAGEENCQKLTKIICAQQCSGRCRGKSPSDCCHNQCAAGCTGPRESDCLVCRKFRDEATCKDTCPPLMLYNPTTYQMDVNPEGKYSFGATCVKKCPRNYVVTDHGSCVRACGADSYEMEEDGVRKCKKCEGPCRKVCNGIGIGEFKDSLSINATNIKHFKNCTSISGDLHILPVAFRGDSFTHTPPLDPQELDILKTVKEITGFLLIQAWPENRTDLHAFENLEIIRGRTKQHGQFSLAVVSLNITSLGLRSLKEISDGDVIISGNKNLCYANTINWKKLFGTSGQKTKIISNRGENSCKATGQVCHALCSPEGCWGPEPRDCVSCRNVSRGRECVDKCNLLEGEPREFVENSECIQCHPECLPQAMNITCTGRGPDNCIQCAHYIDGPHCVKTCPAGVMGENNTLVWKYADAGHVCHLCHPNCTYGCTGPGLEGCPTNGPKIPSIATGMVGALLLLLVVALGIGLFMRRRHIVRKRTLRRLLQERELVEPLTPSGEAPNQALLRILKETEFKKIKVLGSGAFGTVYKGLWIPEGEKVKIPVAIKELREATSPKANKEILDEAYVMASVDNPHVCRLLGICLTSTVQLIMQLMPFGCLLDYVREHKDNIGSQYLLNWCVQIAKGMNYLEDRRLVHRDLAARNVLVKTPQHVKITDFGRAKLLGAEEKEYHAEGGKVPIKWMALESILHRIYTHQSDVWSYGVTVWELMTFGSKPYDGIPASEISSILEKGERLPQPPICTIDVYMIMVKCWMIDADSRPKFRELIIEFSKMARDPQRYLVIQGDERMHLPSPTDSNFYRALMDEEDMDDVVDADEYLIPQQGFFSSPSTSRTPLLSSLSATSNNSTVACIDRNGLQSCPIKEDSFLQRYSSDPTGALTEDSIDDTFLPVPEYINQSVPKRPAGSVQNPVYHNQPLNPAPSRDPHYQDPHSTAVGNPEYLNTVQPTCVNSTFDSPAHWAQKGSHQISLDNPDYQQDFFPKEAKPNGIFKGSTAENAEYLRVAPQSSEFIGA
T1 sequence (P00533 25-1210 T790M/C797S/L858R): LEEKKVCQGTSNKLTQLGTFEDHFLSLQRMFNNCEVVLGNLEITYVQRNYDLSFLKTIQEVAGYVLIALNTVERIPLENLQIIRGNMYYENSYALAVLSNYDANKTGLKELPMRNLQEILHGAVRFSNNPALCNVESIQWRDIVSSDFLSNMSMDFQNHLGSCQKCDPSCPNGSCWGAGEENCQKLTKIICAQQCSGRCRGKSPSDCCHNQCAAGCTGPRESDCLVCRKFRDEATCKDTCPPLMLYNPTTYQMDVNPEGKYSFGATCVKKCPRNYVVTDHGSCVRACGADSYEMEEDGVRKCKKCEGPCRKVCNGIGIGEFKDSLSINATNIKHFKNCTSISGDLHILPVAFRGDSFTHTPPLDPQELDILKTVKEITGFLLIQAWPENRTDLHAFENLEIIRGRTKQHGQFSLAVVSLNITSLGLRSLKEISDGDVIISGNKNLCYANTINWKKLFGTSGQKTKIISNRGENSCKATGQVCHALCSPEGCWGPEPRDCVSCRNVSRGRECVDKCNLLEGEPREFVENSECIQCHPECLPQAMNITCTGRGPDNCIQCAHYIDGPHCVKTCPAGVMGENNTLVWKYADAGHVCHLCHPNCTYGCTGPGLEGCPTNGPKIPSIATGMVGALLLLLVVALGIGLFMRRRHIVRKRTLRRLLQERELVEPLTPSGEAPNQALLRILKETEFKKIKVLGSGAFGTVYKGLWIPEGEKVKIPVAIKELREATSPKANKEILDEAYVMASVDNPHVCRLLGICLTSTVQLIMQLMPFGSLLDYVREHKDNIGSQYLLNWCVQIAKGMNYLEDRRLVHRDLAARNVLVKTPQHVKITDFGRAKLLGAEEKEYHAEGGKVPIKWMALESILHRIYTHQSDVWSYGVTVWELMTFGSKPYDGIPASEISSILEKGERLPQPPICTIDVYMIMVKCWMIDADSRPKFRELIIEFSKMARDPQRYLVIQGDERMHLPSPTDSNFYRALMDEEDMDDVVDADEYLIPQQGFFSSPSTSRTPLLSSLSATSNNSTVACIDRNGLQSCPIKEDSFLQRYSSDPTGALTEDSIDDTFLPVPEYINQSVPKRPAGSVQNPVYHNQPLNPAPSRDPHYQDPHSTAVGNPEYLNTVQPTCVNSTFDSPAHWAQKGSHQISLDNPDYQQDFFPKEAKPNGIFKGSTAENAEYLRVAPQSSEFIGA

IC50 (EGFR (L858R T790M C797S); [2]) [nM] | IC50 [1] [nM] | IC50 (EGFR (L858R T790M C797S); read-out: LRTMCS (PH) IC50 (nM) @ 1 mM ATP (Num)) [nM] | Structure (SMILES)
15 to 20 | > 50 |  | CC(C)c1cnc(C(=O)N[C@H]2CC2(F)F)c2cnc(Nc3ccnc(N4CC[C@@H](O)[C@@](C)(F)C4)n3)cc12 (single isomer, unassigned) [Example 63, N—((S)-2,2-difluorocyclopropyl)-6-((2-((3S,4R)-3-fluoro-4-hydroxy-3-methylpiperidin-1-yl)pyrimidin-4-yl)amino)-4-isopropyl-2,7-naphthyridine-1-carboxamide or N—((R)-2,2-difluorocyclopropyl)-6-((2-((3S,4R)-3-fluoro-4-hydroxy-3-methylpiperidin-1-yl)pyrimidin-4-yl)amino)-4-isopropyl-2,7-naphthyridine-1-carboxamide]
15 to 20 | > 50 |  | CNC(=O)c1ncc(C(C)C)c2cc(Nc3ccnc(N4C[C@@H](F)[C@@H](O)C(C)(C)C4)n3)ncc12 (single isomer, unassigned) [Example 82, 6-((2-((4S,5R)-5-fluoro-4-hydroxy-3,3-dimethylpiperidin-1l-yl)pyrimidin-4-yl)amino)-4-isopropyl-N-methyl-2,7-naphthyridine-1-carboxamide or 6-((2-((4R,5S)-5-fluoro-4-hydroxy-3,3-dimethylpiperidin-1-yl)pyrimidin-4-yl)amino)-4-isopropyl-N-methyl-2,7-naphthyridine-1-carboxamide]
< 15 | 10 to 20 |  | CC(C)c1cnc(C(=O)N[C@H]2CN(C)C[C@H]2F)c2cnc(Nc3ccnc(N4CC[C@@H](O)[C@@](C)(F)C4)n3)cc12 (single isomer, unassigned) [Example 87]
 | 10 to 20 | < 15 | CC(C)c1cnc(C(=O)N[C@H]2CN(C)C[C@H]2F)c2cnc(Nc3ccnc(N4CC[C@@H](O)[C@@](C)(F)C4)n3)cc12 (single isomer, unassigned) [Example 88]
15 to 20 | > 50 |  | CC(C)c1cnc(C(=O)N[C@@H]2CN(C)C[C@H]2F)c2cnc(Nc3ccnc(N4CC[C@@H](O)[C@@](C)(F)C4)n3)cc12 (single isomer, unassigned) [Example 89]
< 15 | 10 to 20 |  | CC(C)c1cnc(C(=O)N[C@@H]2CN(C)C[C@H]2F)c2cnc(Nc3ccnc(N4CC[C@@H](O)[C@@](C)(F)C4)n3)cc12 (single isomer, unassigned) [Example 90]
< 15 | 10 to 20 |  | CC(C)c1cnc(NCCS(C)(=O)=O)c2cnc(Nc3ccnc(N4CC[C@@H](O)[C@@](C)(F)C4)n3)cc12 [Example 2, (3S,4R)-3-fluoro-1-(4-((5-isopropyl-8-((2-(methylsulfonyl)ethyl)amino)-2,7-naphthyridin-3-yl)amino)pyrimidin-2-yl)-3-methylpiperidin-4-ol]
15 to 20 | > 50 |  | CO[C@@H]1CCN(c2nccc(Nc3cc4c(C(C)C)cnc(NCCN(C)C)c4cn3)n2)C[C@@H]1F [Example 3, N^1-(2-(dimethylamino)ethyl)-N^6-(2-((3S,4R)-3-fluoro-4-methoxypiperidin-1-yl)pyrimidin-4-yl)-4-isopropyl-2,7-naphthyridine-1,6-diamine]
< 15 | 20 to 30 |  | CC(=O)N1CC(CNc2ccc(C(C)C)c3cc(Nc4ccnc(N5CC[C@@H](O)[C@@](C)(F)C5)n4)ncc23)C1 [Example 5, 1-(3-(((3-((2-((3S,4R)-3-fluoro-4-hydroxy-3-methylpiperidin-1-yl)pyrimidin-4-yl)amino)-5-isopropylisoquinolin-8-yl)amino)methyl)azetidin-1-yl)ethan-1-one]
20 to 30 | > 50 |  | CC(C)c1cnc(Nc2cnn(C)c2)c2cnc(Nc3ccnc(N4CC[C@@H](O)[C@@](C)(F)C4)n3)cc12 [Example 6, (3S,4R)-3-fluoro-1-(4-((5-isopropyl-8-((1-methyl-1H-pyrazol-4-yl)amino)-2,7-naphthyridin-3-yl)amino)pyrimidin-2-yl)-3-methylpiperidin-4-ol]
15 to 20 | 30 to 50 |  | CC(=O)N1CC(C)(COc2ccc(C(C)C)c3cc(Nc4ccnc(N5CC[C@@H](O)[C@@](C)(F)C5)n4)ncc23)C1 [Example 7, 1-(3-(((3-((2-((3S,4R)-3-fluoro-4-hydroxy-3-methylpiperidin-1-yl)pyrimidin-4-yl)amino)-5-isopropylisoquinolin-8-yl)oxy)methyl)-3-methylazetidin-1-yl)ethan-1-one]
< 15 | < 10 |  | CC(=O)N1CC(COc2ccc(C(C)C)c3cc(Nc4ccnc(N5CC[C@@H](O)[C@@](C)(F)C5)n4)ncc23)C1 [Example 8, 1-(3-(((3-((2-((3S,4R)-3-fluoro-4-hydroxy-3-methylpiperidin-1-yl)pyrimidin-4-yl)amino)-5-isopropylisoquinolin-8-yl)oxy)methyl)azetidin-1-yl)ethan-1-one]
< 15 | > 50 |  | CC(C)c1ccc(OCc2cnn(C)c2)c2cnc(Nc3ccnc(N4CC[C@@H](O)[C@@](C)(F)C4)n3)cc12 [Example 9, (3S,4R)-3-fluoro-1-(4-((5-isopropyl-8-((1-methyl-1H-pyrazol-4-yl)methoxy)isoquinolin-3-yl)amino)pyrimidin-2-yl)-3-methylpiperidin-4-ol]
< 15 | 30 to 50 |  | CC(C)c1ccc(OCc2cn(C)nn2)c2cnc(Nc3ccnc(N4CC[C@@H](O)[C@@](C)(F)C4)n3)cc12 [Example 10, (3S,4R)-3-fluoro-1-(4-((5-isopropyl-8-((1-methyl-1H-1,2,3-triazol-4-yl)methoxy)isoquinolin-3-yl)amino)pyrimidin-2-yl)-3-methylpiperidin-4-ol]
20 to 30 | > 50 |  | CC(=O)N1CC(COc2ccc(C(C)C)c3cc(Nc4ccnc(N5CC[C@@](C)(O)[C@@H](F)C5)n4)ncc23)C1 [Example 11, 1-(3-(((3-((2-((3S,4R)-3-fluoro-4-hydroxy-4-methylpiperidin-1-yl)pyrimidin-4-yl)amino)-5-isopropylisoquinolin-8-yl)oxy)methyl)azetidin-1-yl)ethanone]
< 15 | > 50 |  | CC(C)c1ccc(OCCn2ccnc2)c2cnc(Nc3ccnc(N4CC[C@@](C)(O)[C@@H](F)C4)n3)cc12 [Example 12, (3S,4R)-1-(4-((8-(2-(1H-imidazol-1-yl)ethoxy)-5-isopropylisoquinolin-3-yl)amino)pyrimidin-2-yl)-3-fluoro-4-methylpiperidin-4-ol]
< 15 | 30 to 50 |  | Cc1nccn1CCOc1ccc(C(C)C)c2cc(Nc3ccnc(N4CC[C@@](C)(O)[C@@H](F)C4)n3)ncc12 [Example 13, (3S,4R)-3-fluoro-1-(4-((5-isopropyl-8-(2-(2-methyl-1H-imidazol-1-yl)ethoxy)isoquinolin-3-yl)amino)pyrimidin-2-yl)-4-methylpiperidin-4-ol]
20 to 30 | > 50 |  | CC(=O)N1CC(COc2ccc(C(C)C)c3cc(Nc4ccnc(N5CCC(C)(O)CC5)n4)ncc23)C1 [Example 14, 1-(3-(((3-((2-(4-hydroxy-4-methylpiperidin-1-yl)pyrimidin-4-yl)amino)-5-isopropylisoquinolin-8-yl)oxy)methyl)azetidin-1-yl)ethanone]
< 15 | 30 to 50 |  | CC(C)c1ccc(OCCn2cncn2)c2cnc(Nc3ccnc(N4CCC(C)(O)CC4)n3)cc12 [Example 15, 1-(4-((8-(2-(1H-1,2,4-triazol-1-yl)ethoxy)-5-isopropylisoquinolin-3-yl)amino)pyrimidin-2-yl)-4-methylpiperidin-4-ol]
20 to 30 | > 50 |  | CC(C)c1ccc(OC[C@H]2CN(C)C(=O)O2)c2cnc(Nc3ccnc(N4CCC(C)(O)CC4)n3)cc12 [Example 16, (R)-5-(((3-((2-(4-hydroxy-4-methylpiperidin-1-yl)pyrimidin-4-yl)amino)-5-isopropylisoquinolin-8-yl)oxy)methyl)-3-methyloxazolidin-2-one]
< 15 | > 50 |  | CC(C)c1ccc(OCCn2ccnc2)c2cnc(Nc3ccnc(N4CCC(C)(O)CC4)n3)cc12 [Example 17, 1-(4-((8-(2-(1H-imidazol-1-yl)ethoxy)-5-isopropylisoquinolin-3-yl)amino)pyrimidin-2-yl)-4-methylpiperidin-4-ol]
< 15 | 20 to 30 |  | CC(C)c1ccc(OCC2CCc3cncn32)c2cnc(Nc3ccnc(N4CCC(C)(O)CC4)n3)cc12 (stereo not shown) [Example 18, 1-(4-((8-((6,7-dihydro-5Hpyrrolo[1,2-c]imidazol-5-yl)methoxy)-5-isopropylisoquinolin-3-yl)amino)pyrimidin-2-yl)-4-methylpiperidin-4-ol]
15 to 20 | > 50 |  | CC(C)c1ccc(OC[C@H]2CCC(=O)N2C)c2cnc(Nc3ccnc(N4CC[C@](C)(O)[C@H](F)C4)n3)cc12 [Example 25, (R)-5-(((3-((2-((3R,4S)-3-fluoro-4-hydroxy-4-methylpiperidin-1-yl)pyrimidin-4-yl)amino)-5-isopropylisoquinolin-8-yl)oxy)methyl)-1-methylpyrrolidin-2-one]
